This note sets out measurements from ChEMBL document CHEMBL4364281, “Design of wogonin-inspired selective cyclin-dependent kinase 9 (CDK9) inhibitors with potent in vitro and in vivo antitumor activity” (Eur J Med Chem, 2019).

Values after ≈ are worked out from the molar mass of the structure shown.

Data set [1] concerns MV4-11. Description: Cell cycle arrest in human MV4-11 cells assessed as accumulation at S phase at 0.25 uM after 24 hrs propidium iodide staining based flow cytometry (reference value: 26.06%). The data set is classed as functional.
The test system of data set [2] is MV4-11. Nature of the data set: Induction of apoptosis in human MV4-11 cells assessed as decrease in c-MYC expression after 4 hrs by Western blot analysis. Type of data set: functional, cell-based. (In western blotting, separated proteins are transferred to a membrane and probed.)
Another data set relates to CCRF-CEM. Description: Antiproliferative activity against human CEM cells assessed as reduction in cell viability after 72 hrs by MTT assay. Type of data set: functional, cell-based. (Tetrazolium assays rely on reduction of a dye to a coloured formazan, in cell work by metabolically active cells.)
Data set [3] has as its system MV4-11. Description: Induction of apoptosis in human MV4-11 cells assessed as decrease in MCL-1 expression after 4 hrs by Western blot analysis. The data set is classed as functional, cell-based.
The subject of data set [4] is MV4-11. Description: Cell cycle arrest in human MV4-11 cells assessed as accumulation at G1 phase at 1.25 uM after 24 hrs by propidium iodide staining based flow cytometry (reference value: 41.20%). The data set is classed as functional.
Data set [5] deals with Cyclin-dependent kinase 9 (Homo sapiens) (UniProt P50750). Nature of the data set: Inhibition of CDK9 in human MV4-11 cells assessed as inhibition of RNA polymerase 2 phosphorylation at S2 residue after 4 hrs by Western blot analysis. Type of data set: cell-based.
Sequence of Cyclin-dependent kinase 9 (Homo sapiens) (P50750 whole entry): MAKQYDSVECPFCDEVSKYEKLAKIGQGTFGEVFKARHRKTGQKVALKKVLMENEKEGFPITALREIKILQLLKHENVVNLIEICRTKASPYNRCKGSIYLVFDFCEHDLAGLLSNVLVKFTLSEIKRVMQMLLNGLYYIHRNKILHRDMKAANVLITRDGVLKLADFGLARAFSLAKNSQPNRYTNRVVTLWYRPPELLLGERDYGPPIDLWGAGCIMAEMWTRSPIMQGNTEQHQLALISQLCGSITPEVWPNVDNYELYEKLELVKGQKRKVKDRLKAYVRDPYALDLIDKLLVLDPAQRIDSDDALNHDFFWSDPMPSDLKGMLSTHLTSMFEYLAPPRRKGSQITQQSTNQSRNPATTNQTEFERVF
In data set [6] the test system is MV4-11. Description: Induction of apoptosis in human MV4-11 cells assessed as late apoptotic cells at 0.05 uM after 24 hrs by Annexin-V/propidium iodide staining based flow cytometric method (reference value: 0.07%). The data set is classed as functional. In general terms: In flow cytometry, cells or beads pass a laser one at a time.
The subject of data set [7] is MV4-11. Nature of the data set: Cell cycle arrest in human MV4-11 cells assessed as accumulation at S phase at 1.25 uM after 24 hrs propidium iodide staining based flow cytometry (reference value: 26.06%). The data set is classed as functional.
A further data set concerns RPMI-8226. Nature of the data set: Antiproliferative activity against human RPMI8226 cells assessed as reduction in cell viability after 72 hrs by MTT assay. Type of data set: functional, cell-based. Conditions: RPMI-8226, 72 h.
The next data set deals with CDK2/Cyclin A2 (Homo sapiens, UniProt P24941).
Another data set deals with HEK293. Nature of the data set: Cytotoxicity against human HEK293 cells assessed as reduction in cell viability after 72 hrs by MTT assay. The data set is classed as cell-based. Conditions: HEK293, 72 h.
Data set [8] deals with MV4-11. Nature of the data set: Cell cycle arrest in human MV4-11 cells assessed as accumulation at G1 phase at 0.05 uM after 24 hrs by propidium iodide staining based flow cytometry (reference value: 41.20%). Type of data set: functional.
In data set [9] the test system is MV4-11. Nature of the data set: Antitumor activity against human MV4-11 cells xenografted in BALB/c mouse assessed as tumour growth inhibition at 30 mg/kg, iv administered every other day for 21 days relative to control. Type of data set: functional. The note with it: MV4-11, iv, 504 h, read-out: TGI.

For orientation: IC50 means the concentration needed to halve the response being measured. What is called solubility is how much of the substance goes into solution per volume. Higher therefore signals a readily soluble substance.

Description for CDK2/Cyclin A2: Inhibition of human CDK2/cyclin-A2 using H1 histone as substrate after 2 hrs by [gamma-33P]-ATP assay
Description for physchem: Intrinsic solubility of compound by potentiometric titration assay

In the case of `COc1cc(O)c2c(=O)cc(-c3ccc(N4CCN(C)CC4)cc3)oc2c1Oc1c(C)n[nH]c1C`, the Activity in the data set on MV4-11 [1] was 30.91%; with MV4-11 [2], “Dose-dependent effect”; with MV4-11 [3] it was “Dose-dependent effect”; in the data set on MV4-11 [4], 62.77%; in the data set on MV4-11 [6] it was 5.53%; in the data set on MV4-11 [7], 28.21%. Further, the Activity in the data set with MV4-11 [8] turned out to be 48.27%. The IC50 with CCRF-CEM is 1240 nM; with RPMI-8226, 820 nM; at CDK2/Cyclin A2, 913 nM; in the data set with HEK293, 22100 nM. In the data set “physchem”, this compound displayed a solubility of 28 µg/mL (≈ 58.8 µM). Moreover, in [5], the inhibition result was “Dose-dependent effect”. Further, the inhibition in vivo at 30 mg/kg in the data set on MV4-11 [9] was 42.6%.
